What is called IC50 is the concentration needed to halve the response being measured.

Counter-ions that a name gives are not always drawn.

The record followed here is patent US20180118718A1, “Substituted Quinoxaline Derivatives” (Selvita S.A., priority 2015, published 2018).

This experiment addresses T1, Human recombinant His-tagged PFKFB3 (Homo sapiens, UniProt Q16875).
T1 construct: His; made in house
Briefly: PFKFB3 IC50 Determination Assay (in vitro kinase assay, modified ADP-Glo system). The class given is biochemical. The settings on record: ATP 20 μM and fructose-6-phosphate 2 μM (Km), 25 nM PFKFB3, 2 h, rt, ADP-Glo luminescence. The procedure:
PFKFB3 IC50 Determination Assay
In vitro kinase assay used to determine IC50 values for tested inhibitors is based on a modified ADP-Glo™ system (Promega) and consists of two parts:
1. Kinase reaction—performed in optimized conditions. At this step PFKFB3 phosphorylates its substrate Fructose-6-phosphate using ATP as a source of phosphate to produce Fructose-2,6-bisphosphate and ADP. Reaction is performed at Km values for ATP and substrate using optimized buffer composition and time of the reaction. Human recombinant His-tagged PFKFB3 (PFKFB3 BATCH II SEC) with confirmed activity is produced and purified in-house. 2. Detection of ADP as a product of the reaction using ADP-Glo™ system. This part is conducted by using the commercially available kit ADP-Glo™ Kinase Assay (Promega, cat. No# V9103) according to manufacturer's instruction, modified by 5x dilutions of assay reagents (both ADP-Glo™ Reagent and Kinase Detection Solution).
Test compounds are dissolved in DMSO and then transferred to the V-bottom 96-well plate.
15 μL per well of Mix 1 is transferred to assay wells of 96-well white plate. […] Total reaction volume is 30 μL per well. Samples are tested in duplicates. Final concentration of DMSO in the reaction is 6.7%. Conditions needed for performing PFKFB3 (PFKFB3 BATCH II SEC) in vitro kinase assay are given below:
This protocol is based on Technical Bulletin, ADP-Glo™ Kinase Assay (Promega) and is adapted to 96-well plate containing 30 μL reaction mixture:
30 μL of 5x diluted ADP-Glo™ Reagent is added to each well of 96-well plate containing 30 μL of reaction mixture. The plate is incubated for 90 minutes on a shaker at RT. 60 μL of 5x diluted Kinase Detection Solution is added to each well of 96-well plate containing 60 μL of the solution (ratio of kinase reaction volume to ADP-Glo™ Reagent volume to Kinase Detection Solution volume is maintained at 1:1:2). Plate is incubated for 40 minutes on a shaker at RT, protected from light. Luminescence is measured in the plate reader Synergy 2 (BioTek).
Luminescent readouts for compounds tested in 10 concentrations (routinely from 100 μM to […], […] serial dilutions) in duplicates, as well as for positive control, are first normalized to no-substrate negative control by its subtraction. In the next step, % of normalized positive control is calculated for each data point and plotted against test compound concentration:
% of control percent of positive control normalized to no-substrate negative control Lumcpd luminescence of test compound Lumneg luminescence of no-substrate negative control Lumpos luminescence of positive control
IC50 parameter is determined by the GraphPad Prism 5.0 software [log(inhibitor) vs. response −Variable slope (four parameters)].
In general terms: ADP-Glo turns the ADP formed in a reaction into a luminescent signal.

T1 sequence (Q16875 whole entry): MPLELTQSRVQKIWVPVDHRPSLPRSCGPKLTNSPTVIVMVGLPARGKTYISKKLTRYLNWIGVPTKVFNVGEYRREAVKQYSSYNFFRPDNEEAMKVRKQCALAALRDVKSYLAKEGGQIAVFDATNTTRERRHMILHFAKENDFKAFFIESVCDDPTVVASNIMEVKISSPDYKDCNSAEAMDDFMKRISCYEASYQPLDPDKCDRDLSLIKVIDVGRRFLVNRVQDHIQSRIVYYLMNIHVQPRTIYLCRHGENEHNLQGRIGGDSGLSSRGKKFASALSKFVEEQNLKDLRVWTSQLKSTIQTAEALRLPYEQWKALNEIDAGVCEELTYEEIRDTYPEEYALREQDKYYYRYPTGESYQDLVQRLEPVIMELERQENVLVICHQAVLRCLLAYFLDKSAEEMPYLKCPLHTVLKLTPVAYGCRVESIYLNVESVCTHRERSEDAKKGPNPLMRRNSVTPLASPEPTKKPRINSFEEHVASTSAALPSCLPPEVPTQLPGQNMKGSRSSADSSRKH

With `Cn1ccc2ccc(-c3cc(N4CCc5ccncc54)cc4nccnc34)cc21` [Example 2, 5-(1-Methyl-1H-indol-6-yl)-7-{1H,2H,3H-pyrrolo[2,3-c]pyridin-1-yl}quinoxaline], the IC50 is 0.001 to 1 µM.
Next, `COc1ccc(Cl)c(-c2cc(Nc3cnccc3S(C)(=O)=O)cc3nccnc23)c1` [Example 5, 8-(2-Chloro-5-methoxyphenyl)-N-(4-methanesulfonylpyridin-3-yl)quinoxalin-6-amine]: 1 to 10 µM; `Cn1ccc2ccc(-c3cc(Nc4cccnc4S(C)(=O)=O)cc4nccnc34)cc21` [Example 6, N-(2-Methanesulfonylpyridin-3-yl)-8-(1-methyl-1H-indol-6-yl)quinoxalin-6-amine]: 0.001 to 1 µM; `Cn1ccc2ccc(-c3cc(Nc4cc(Br)ccc4S(C)(=O)=O)cc4nccnc34)cc21` [Example 10, N-(5-Bromo-2-methanesulfonylphenyl)-8-(1-methyl-1H-indol-6-yl)quinoxalin-6-amine]: 0.001 to 1 µM.
Next, `Cn1ccc2ccc(-c3cc(Nc4ccc[nH]c4=O)cc4nccnc34)cc21` [Example 14, 3-{[8-(1-Methyl-1H-indol-6-yl)quinoxalin-6-yl]amino}pyridin-2-ol]: 0.001 to 1 µM; `Cn1ccc2ccc(-c3cc(Nc4ccccc4S(=O)(=O)N4CCNCC4)cc4nccnc34)cc21` [Example 15, 8-(1-Methyl-1H-indol-6-yl)-N-[2-(piperazine-1-sulfonyl)phenyl]quinoxalin-6-amine trifluoroacetate]: 1 to 10 µM; `Cn1ccc2ccc(-c3cc(Nc4cccnc4N)cc4nccnc34)cc21` [Example 17, 3-N-[8-(1-methyl-1H-indol-6-yl)quinoxalin-6-yl]pyridine-2,3-diamine]: 1 to 10 µM.
Then `Cn1ccc2ccc(-c3cc(Nc4ccccc4S(C)(=O)=O)cc4nccnc34)nc21` [Example 21, N-(2-Methanesulfonylphenyl)-8-{1-methyl-1H-pyrrolo[2,3-b]pyridin-6-yl}quinoxalin-6-amine trifluoroacetate], with 0.001 to 1 µM; and `Cc1coc2ccc(-c3cc(Nc4cnccc4C#N)cc4nccnc34)cc12` [Example 24, 3-{[8-(3-methyl-1-benzofuran-5-yl)quinoxalin-6-yl]amino}pyridine-4-carbonitrile], with 0.001 to 1 µM; and `Cn1ccc2ccc(-c3cc(Nc4cc(C#N)ccc4S(C)(=O)=O)cc4nccnc34)cc21` [Example 25, 4-Methanesulfonyl-3-{[8-(1-methyl-1H-indol-6-yl)quinoxalin-6-yl]amino}benzonitrile], with 0.001 to 1 µM.
`Cc1coc2ccc(-c3cc(Nc4cnccc4C(N)=O)cc4nccnc34)cc12` [Example 26, 3-{[8-(3-Methyl-1-benzofuran-5-yl)quinoxalin-6-yl]amino}pyridine-4-carboxamide]: the IC50 fell in the range of 0.001 to 1 µM.
As to `Cn1ccc2ccc(-c3cc(Nc4ncncc4S(C)(=O)=O)cc4nccnc34)cc21` [Example 27, N-(5-Methanesulfonylpyrimidin-4-yl)-8-(1-methyl-1H-indol-6-yl)quinoxalin-6-amine], the IC50 lay within 1 to 10 µM.
Then `Cn1ccc2cc(-c3cc(Nc4cnccc4C#N)cc4nccnc34)ccc21` [Example 28, 3-{[8-(1-Methyl-1H-indol-5-yl)quinoxalin-6-yl]amino}pyridine-4-carbonitrile], with 10 to 100 µM; and `Cn1ccc2cc(-c3cc(Nc4cnccc4C(N)=O)cc4nccnc34)ccc21` [Example 29, 3-{[8-(1-Methyl-1H-indol-5-yl)quinoxalin-6-yl]amino}pyridine-4-carboxamide], with 1 to 10 µM; and `Cn1ccc2cc(-c3cc(Nc4cnccc4Cl)cc4nccnc34)ccc21` [Example 30, N-(4-Chloropyridin-3-yl)-8-(1-methyl-1H-indol-5-yl)quinoxalin-6-amine], with 10 to 100 µM.
Next, `Cn1cc(-c2ccncc2Nc2cc(-c3ccc4c(ccn4C)c3)c3nccnc3c2)cn1` [Example 31, 8-(1-Methyl-1H-indol-5-yl)-N-[4-(1-methyl-1H-pyrazol-4-yl)pyridin-3-yl]quinoxalin-6-amine]: 10 to 100 µM; `CN1CCN(c2ccncc2Nc2cc(-c3ccc4c(ccn4C)c3)c3nccnc3c2)CC1` [Example 32, 8-(1-Methyl-1H-indol-5-yl)-N-[4-(4-methylpiperazin-1-yl)pyridin-3-yl]quinoxalin-6-amine]: 1 to 10 µM; `Cn1ccc2cc(-c3cc(Nc4cnccc4-c4cncnc4)cc4nccnc34)ccc21` [Example 33, 8-(1-Methyl-1H-indol-5-yl)-N-[4-(pyrimidin-5-yl)pyridin-3-yl]quinoxalin-6-amine]: 10 to 100 µM.
Next, `Cn1ccc2cc(-c3cc(N4CCc5ccncc54)cc4nccnc34)ccc21` [Example 34, 5-(1-Methyl-1H-indol-5-yl)-7-{1H,2H,3H-pyrrolo[2,3-c]pyridin-1-yl}quinoxaline]: 10 to 100 µM.
For `Cn1ccc2ccc(-c3cc(Nc4cc([N+](=O)[O-])ccc4S(C)(=O)=O)cc4nccnc34)cc21` [Example 35, N-(2-Methanesulfonyl-5-nitrophenyl)-8-(1-methylindol-6-yl)quinoxalin-6-amine], the IC50 lay in the range of 0.001 to 1 µM.
Next, `Cn1ccc2ccc(-c3cc(Nc4cc(N)ccc4S(C)(=O)=O)cc4nccnc34)cc21` [Example 36, 6-Methanesulfonyl-N1-[8-(1-methyl-1H-indol-6-yl)quinoxalin-6-yl]benzene-1,3-diamine]: 0.001 to 1 µM; `Cn1ccc2cc(-c3cc(Nc4cc(CN)ccc4S(C)(=O)=O)cc4nccnc34)ccc21` [Example 38, N-[5-(Aminomethyl)-2-methanesulfonylphenyl]-8-(1-methyl-1H-indol-5-yl)quinoxalin-6-amine]: 10 to 100 µM.
Next, `Cc1ccc(C)c(-c2cc(Nc3cnccc3S(C)(=O)=O)cc3nccnc23)c1` [Example 39, 8-(2,5-Dimethylphenyl)-N-(4-methanesulfonylpyridin-3-yl)quinoxalin-6-amine]: 0.001 to 1 µM.
On to `CN1CCN(c2ccncc2Nc2cc(-c3ccc4ccn(C)c4c3)c3nccnc3c2)CC1` [Example 40, 8-(1-Methyl-1H-indol-6-yl)-N-[4-(4-methylpiperazin-1-yl)pyridin-3-yl]quinoxalin-6-amine], for which the IC50 was in the range of 0.001 to 1 µM.
Next, `CC(=O)Nc1ccc(S(C)(=O)=O)c(Nc2cc(-c3ccc4ccn(C)c4c3)c3nccnc3c2)c1` [Example 41, N-(4-Methanesulfonyl-3-{[8-(1-methyl-1H-indol-6-yl)quinoxalin-6-yl]amino}phenyl)acetamide]: 1 to 10 µM; `Cn1ccc2ccc(-c3cc(Nc4cc(-n5ccnc5)ccc4S(C)(=O)=O)cc4nccnc34)cc21` [Example 42, N-[5-(1H-Imidazol-1-yl)-2-methanesulfonylphenyl]-8-(1-methyl-1H-indol-6-yl)quinoxalin-6-amine]: 0.001 to 1 µM; `Cn1ccc2ccc(-c3cc(Nc4cc(-c5nn[nH]n5)ccc4S(C)(=O)=O)cc4nccnc34)cc21` [Example 43, N-[2-Methanesulfonyl-5-(2H-1,2,3,4-tetrazol-5-yl)phenyl]-8-(1-methyl-1H-indol-6-yl)quinoxalin-6-amine]: 0.001 to 1 µM.
Turning to `Cn1ccc2ccc(-c3cc(Nc4c[n+]([O-])ccc4S(C)(=O)=O)cc4nccnc34)cc21` [Example 44, 4-Methanesulfonyl-3-{[8-(1-methyl-1H-indol-6-yl)quinoxalin-6-yl]amino}pyridin-1-ium-1-olate], the IC50 lay in the range of 0.001 to 1 µM.
Next, `CN1CCN(c2ccc(S(C)(=O)=O)c(Nc3cc(-c4ccc5ccn(C)c5c4)c4nccnc4c3)c2)CC1` [Example 45, N-[2-Methanesulfonyl-5-(4-methylpiperazin-1-yl)phenyl]-8-(1-methyl-1H-indol-6-yl)quinoxalin-6-amine]: 1 to 10 µM; `CC(=O)N1CCN(c2ccc(S(C)(=O)=O)c(Nc3cc(-c4ccc5ccn(C)c5c4)c4nccnc4c3)c2)CC1` [Example 46, 1-[4-(4-Methanesulfonyl-3-{[8-(1-methyl-1H-indol-6-yl)quinoxalin-6-yl]amino}phenyl)piperazin-1-yl]ethan-1-one]: 1 to 10 µM; `Cn1ccc2ccc(-c3cc(Oc4cnccc4C#N)cc4nccnc34)cc21` [Example 47, 3-{[8-(1-Methyl-1H-indol-6-yl)quinoxalin-6-yl]oxy}pyridine-4-carbonitrile]: 0.001 to 1 µM.
